Assays:
Nrf2 = assay: Luciferase activity in AREc32 cells after scramble or GSK3β siRNA; type: cell-based, human; conditions: 10 μM, 24 h
Experimental: To further evaluate the potential relationship between GSK3β inhibition and the Nrf2 induction properties we used two different approaches. […] Cells were treated with compound 5m at increasing concentrations alone or in presence of Li (10 mM) during 24 h and thereafter, luciferase activity was evaluated. […] Secondly, to corroborate the independence of the Nrf2 induction properties of our derivatives from their GSK3β inhibitory properties, we used GSK3β knock down experimental conditions using siRNA. […] After knockdown of GSK3β, AREc32 cells were incubated with compound 5m (10 μM) during 24 h (Fig. 4B). Subsequently, luciferase activity and HO-1 expression were analyzed. […] Similar results were obtained when HO-1 expression was analyzed (Fig. 4D), compound 5m increased HO-1 expression 3.9 times after scramble treatment and 3.5 times after knockdown of GSK3β showing no statistical differences between both conditions. […]
Figure 4 Nrf2 induction properties are independent of the GSK3β inhibitory activity. […] (D) HO-1 expression induced by compound 5m (10 μM) measured at the same experimental conditions used previously. Values are expressed as mean ± SEM of three independent experiments in duplicate. ^###p < 0.001; ^##p < 0.01; ^#p < 0.05 compared to the correspondent basal conditions. […]

TNFα = TNFα release induced by LPS in mixed glial cells (ELISA); type: cell-based, rat; conditions: LPS 1 μg/mL
Experimental: TNFα is considered one of the most important pro-inflammatory cytokines. […] The production of TNFα induced by LPS was reduced by 33% at 10 μM and by 50% at 30 μM. […] To further confirm the anti-inflammatory potential of compound 5c we measured the expression of thre NOX2 enzyme, since this isoform has been widely described as being specific tomicroglial cells. As depicted in Fig. 6F, LPS (1 μg/mL) stimulation of primary glial cultures during 24 h increased the expression of NOX2 by 65.3% (p < 0.01) compared to basal conditions.
Figure 6 Nitrites (A), TNFα (B), iNOS (C) and NOX activity (E) blockade (D) and NOX2 production (F) by 5c in primary glial cultures stimulated with LPS (1 μg/mL), HO-1 expression induced by this compound after 24 h. […] NOX activity was measured after 4 h co-treatment with LPS and compound 5c. […]
Tumor necrosis factor-alpha (TNFα) concentrations were measured by specific quantitative sandwich ELISA kits (Preprotech, R&D Systems-bioNova, Madrid, Spain) following manufacturer instructions. TNFα levels in supernatant samples, obtained after treatments with culture media (Basal), LPS or LPS co-incubated with increasing concentrations of compound 5c, were measured following manufacturer instructions. […] Light absorption was measured in a microplate reader (Labtech, Offenburg, Germany). […]

SMILES	Luciferase activity fold increase compared to basal conditions (Nrf2; GSK3β silenced (siGSK3β))	Luciferase activity fold increase compared to basal conditions (Nrf2; cells previously treated with scramble control siRNA)	Reduction of TNFα production induced by LPS (TNFα; 10 μM)	Reduction of TNFα production induced by LPS (TNFα; 30 μM)
Cc1[nH]nc2c1C(c1ccc(Br)cc1)C(C#N)=C(N)O2 (stereo not shown) [Compound 5m, 6-Amino-4-(4-bromophenyl)-3-methyl-2,4-dihydropyrano[2,3-c]pyrazole-5-carbonitrile]	2.8 fold	2.2 fold	–	–
COc1cccc(C2C(C#N)=C(N)Oc3n[nH]c(C)c32)c1 (stereo not shown) [Compound 5c, 6-Amino-4-(3-methoxyphenyl)-3-methyl-2,4-dihydropyrano[2,3-c]pyrazole-5-carbonitrile]	–	–	33%	50%

Source: paper PMC5374710, “Discovery of the first dual GSK3β inhibitor/Nrf2 inducer. A new multitarget therapeutic strategy for Alzheimer’s disease” (Scientific Reports, 2017)
